US20070238745A1, “PI3K-Akt Pathway Inhibitors” (UNIVERSITY OF SOUTH FLORIDA, priority 2006, published 2007)
Entries after “also recorded” stand apart in the source; their conditions may differ. Read-outs that look alike come from different tables or passages of the source.

Assays:
LNCaP, LAPC4 and LAPC9 = conditions: most prostate cancer cell lines, including LNCaP; cited from earlier work
PC3 cells [1] = experiment: Apoptosis of PC3 cells (DNA fragmentation Cell Death ELISA, Tunel); format: cell-based, human; conditions: 20 mM LY, 20 mM API-2, 50 mM roscovitine or combination for 14 hr (ELISA); 40 hrs (Tunel)
Experimental: Tunel positive cells are shown. […] Cells were incubated with Hoechest stain for 5 mins and examined using a fluorescent microscope. […] Amounts of cytosolic histone associated DNA fragments were measured.
(§1) Prostate cancer cell lines used in our studies include LNCaP, LNCaP-Rf, PC3 and PC3-MM2. […] LNCaP cells and PC3 cells were derived from a lymph node metastasis and a bone metastasis, respectively, of human prostate tumors. All these cell lines express constitutively active AKT. To distinguish the effects of our therapeutics between normal and tumor cells, we also used an immortalized but non-tumorigenic prostate epithelial cell line, RWPE, in our study. All experiments were performed on growing cells in medium containing 10% fetal calf serum.

PC3 cells [2] = experiment: Cell growth by trypan-blue exclusion, PC3; format: cell-based, human; conditions: 72 hr
Experimental: (§2) FIG. 3 is a series of graphs illustrating the effects of drugs on growth potential of prostate cancer cells. Cells were treated with various inhibitors for 72 hrs and cell growth was enumerated by trypan-blue exclusion.
as §1
(§3) Further, effects of the combination treatment in altering colony formation potential were examined. For this purpose, cells were exposed to drugs for 24 or 46 hrs and trypsinized. Ten thousand viable cells were replated and allowed to grow colonies for 2 weeks.

LNCaP cells [3] = experiment: PARP cleavage by Western blotting in LNCaP cells; format: cell-based, human
Experimental: Cell lysates were analysed for PARP cleavage by Western blotting. […] Lysates were analysed by Western blotting. […] Lysates were analysed by Western blotting. In FIG. 1D LNCaP cells were transfected with pcDNA3 (vector) or pcDNA3 encoding dn-AKT plasmid. […] Lysates were analysed by Western blotting.
as §1
Apoptosis was monitored by cleavage of the caspase-3 substrate poly (ADP-ribose) polymerase (PARP).

Bim [4] = experiment: Amounts of Bim in LNCaP and PC3 cells; format: cell-based, human
Excerpt: How AKT inhibitors facilitate the mitochondria-dependent apoptosis of prostate cancer cells remains to be determined. Potential mechanisms include accumulation of the BH3-only protein Bim and dephosphorylation and activation of Bad. The FOXO factors activate the Bim promoter, and AKT phosphorylates Bim, which may prevent its degradation.

[5] = cited from earlier work
PC3-MM2 cells = experiment: Cell growth by trypan-blue exclusion, PC3-MM2; format: cell-based, human; conditions: 72 hr
Experimental: as §2, §1, §3

151 kinases = conditions: cited from earlier work
[6] = tested on: lung, breast, and B cell cancer; conditions: cited from earlier work
[7] = tested on: malignant tumors refractory to conventional treatments; conditions: patients with malignant tumors refractory to conventional treatments; cited from earlier work
LNCaP cells [8] = conditions: cited from earlier work
LNCaP, LNCaP-Rf = conditions: LNCaP-Rf prostate cancer cells, roscovitine alone; cited from earlier work
[9] = cited from earlier work; remark: listed apart in the source
PC3 and DU145 cells = conditions: cited from earlier work
Bim [10] = conditions: PC3 cells, 8 hrs; roscovitine in either the presence or absence of API-2
Experimental: (§4) Lysates were analysed by Western blotting. […] Lysates were analysed by Western blotting.

XIAP [11] = conditions: PC3 cells, longer exposure (20 hrs), single agent
Experimental: as §4

p53 = conditions: LNCaP and LNCaP-Rf cells; cited from earlier work
[12] = tested on: HTLV-I transformed T cell lines (MT-2); conditions: cited from earlier work
[13] = orally, 3 times a day at 200 mg/kg or 2 times a day at 500 mg/kg; cited from earlier work
Cdk7/Cdk9 = experiment: Western blotting: phosphorylation of RNA-Pol II in PC3 cells; conditions: short-term exposure (8 hrs)
Experimental: (§5) Lysates were analysed by Western blotting. […] Cells were exposed to drugs for 20 hrs. Lysates were analysed by Western blotting.

[14] = tested on: melanoma cells expressing wild-type p53 (A375, 888-Mel, 624-Mel); conditions: melanoma cells A375, 888-Mel, 624-Mel (wild-type p53); cited from earlier work
Bcl-2 = experiment: Western blotting: Bcl-2 expression in PC3 cells; conditions: longer exposure (20 hrs)
Experimental: as §5

XIAP [15] = conditions: LNCaP, LNCaP-Rf, and PC3 cells; cited from earlier work

## O=c1cc(N2CCOCC2)oc2c(-c3ccccc3)cccc12 [LY, 2-(4-morpholinyl)-8-phenyl-4H-1-benzopyran-4-one]
LNCaP, LAPC4 and LAPC9
  apoptotic response: induce a potent apoptotic response
PC3 cells [1]
  apoptosis of PC3 cells: not
PC3 cells [2]
  cell growth: inhibit cell growth
LNCaP cells [3]; LNCaP cells, 8 hours, cleavage of caspase-3 substrate PARP, 10 uM LY294002 or 0.5 uM Wortmannin
  PARP cleavage: did not induce any PARP cleavage
Bim [4]
  amounts of Bim: increase amounts of Bim
[5]
  in vivo half-life: short in vivo half-life
PC3-MM2 cells
  cell growth: inhibit cell growth

## CC[C@H](CO)Nc1nc(NCc2ccccc2)c2ncn(C(C)C)c2n1 [R-roscovitine, 2-(1-R-hydroxymethylpropylamino)-6-benzylamino-9-iso-propylpurine]
151 kinases
  binding among 151 kinases examined: bound only its known CDK targets and pyridoxal kinase
[6]
  responses, Phase II clinical trials: partial responses lasting more than four months
  toxicity, Phase II clinical trials: limited toxicity
[7]
  toxicity, Phase I trial: toxicity at higher doses
  tumor responses, Phase I trial: no objective tumor responses

## Cc1ccc(C(=O)Cn2c3c(sc2=N)CCCC3)cc1 [pifithrin-α]
LNCaP cells [8]
  rescue from roscovitine-induced apoptosis: rescues LNCaP cells

## CCC(CO)Nc1nc(NCc2ccccc2)c2ncn(C(C)C)c2n1 (stereo not shown) [roscovitine, 2-(1-ethyl-2-hydroxyethylamino)-6-benzylamino-9-isopropylpurine]
PC3 cells [1]
  apoptosis of PC3 cells: not
PC3 cells [2]
  cell growth: inhibit cell growth
LNCaP, LNCaP-Rf
  apoptosis: can induce apoptosis; also recorded: readily induces apoptosis
[9]; in vivo
  tissue distribution / tumor uptake: highest tumor uptake
[9]; via oxidative metabolism of the side chain hydroxyl group, excreted in urine
  clearance from plasma: clears slowly
PC3 and DU145 cells; DU145 and PC3 cells
  apoptosis when supplied with roscovitine and wild-type p53: efficiently apoptose
PC3 and DU145 cells
  apoptosis: relatively resistant and not
Bim [10]
  Bim abundance: did not alter Bim abundance
XIAP [11]
  XIAP expression / abundance: reduced expression of XIAP
LNCaP cells [3]
  PARP cleavage: did not induce any PARP cleavage
  PARP cleavage in the presence as compared with the absence of dominant-negative AKT: enhanced PARP cleavage
  exposure time at which robust PARP cleavage was evident: more than 9 hr
PC3-MM2 cells
  cell growth: inhibit cell growth
p53
  p53 abundance: increases p53 abundance
[12]
  apoptosis: readily induces apoptosis
[13]
  toxicity or adverse effects: without any toxicity or adverse effects
Cdk7/Cdk9
  activity of Cdk7/Cdk9 as measured by phosphorylation of RNA-Pol II: reduced activity
[14]
  apoptosis: apoptose; also recorded: readily induces apoptosis
Bcl-2
  Bcl-2 expression: not
XIAP [15]
  XIAP expression: reduces XIAP expression

## COC[C@H]1OC(=O)c2coc3c2[C@@]1(C)C1=C(C3=O)[C@@H]2CCC(=O)[C@@]2(C)C[C@H]1OC(C)=O [wortmannin]
[5]
  in vivo half-life: short in vivo half-life
